Source: publication PMC4503722, “Novel Phenotypic Outcomes Identified for a Public Collection of Approved Drugs from a Publicly Accessible Panel of Assays” (PLoS ONE, 2015)

test system: endothelial tube formation in co-cultures of ECFCs and ADSCs treated with VEGF; assay: cells; type: cell-based, human; settings: not given

For `CC(=O)Oc1ccc(C2(c3ccc(OC(C)=O)cc3)Oc3ccccc3NC2=O)cc1` [NCGC00182998-01], which “VEGF_ADSC\ECFC Angio CD31 TubeArea IC50/EC50” value is on record?
The value was 2.2736 µM.

Which “VEGF_ADSC\ECFC Angio CD31 TubeArea IC50/EC50” value does the source give for `COc1cc(NCc2ccc3nc(N)nc(N)c3c2C)cc(OC)c1OC` [NCGC00161419-05] here?
The value was 4.418 µM.

test system: nuclear β-catenin in C2C12 cells; assay: cells; type: cell-based; settings: assay number 5; concentration response

Which “WntCondMedia_bCatenin C2C12 IC50/EC50” value does the source give for `CC(=O)Oc1ccc(C2(c3ccc(OC(C)=O)cc3)Oc3ccccc3NC2=O)cc1` [NCGC00182998-01] here?
The value was over 20 µM.

With `COc1cc(NCc2ccc3nc(N)nc(N)c3c2C)cc(OC)c1OC` [NCGC00161419-05] as the compound, how does the “WntCondMedia_bCatenin C2C12 IC50/EC50” value read?
The value was 0.0033 µM.

test system: alkaline phosphatase (ALP) activity in C2C12 cells; assay: not given; type: cell-based; settings: assay number 6; concentration response

With `CC(=O)Oc1ccc(C2(c3ccc(OC(C)=O)cc3)Oc3ccccc3NC2=O)cc1` [NCGC00182998-01] as the compound, how does the “WntCondMedia_Alk Phos C2C12 IC50/EC50” value read?
Its value is 13.9611 µM.

`COc1cc(NCc2ccc3nc(N)nc(N)c3c2C)cc(OC)c1OC` [NCGC00161419-05] was tested. Which “WntCondMedia_Alk Phos C2C12 IC50/EC50” value did it give?
Its value is over 20 µM.

test system: INS-1E cells; assay: cells; type: cell-based, rat; settings: assay number 8; 5 mM glucose;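 also: secreted insulin quantified by homogeneous immunoassay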

For `CC(=O)Oc1ccc(C2(c3ccc(OC(C)=O)cc3)Oc3ccccc3NC2=O)cc1` [NCGC00182998-01], which “5mMGluc_INS1E SecretionMod IC50/EC50” value is on record?
The value was over 33.33 µM.

test system: HeLa cells; assay: cells; type: cell-based; settings: assay number 14; 2N

With `CC(=O)Oc1ccc(C2(c3ccc(OC(C)=O)cc3)Oc3ccccc3NC2=O)cc1` [NCGC00182998-01] as the compound, how does the “Hela CellCycMod PI 2N IC50/EC50” value read?
Its value is over 10 µM.

How did the “Hela CellCycMod PI 2N IC50/EC50” value turn out when `COc1cc(NCc2ccc3nc(N)nc(N)c3c2C)cc(OC)c1OC` [NCGC00161419-05] was run?
The value was over 10 µM.

same assay, conditions: assay number 15; S phase

How did the “Hela CellCycMod PI S Phase IC50/EC50” value turn out when `CC(=O)Oc1ccc(C2(c3ccc(OC(C)=O)cc3)Oc3ccccc3NC2=O)cc1` [NCGC00182998-01] was run?
The value was over 10 µM.

Which “Hela CellCycMod PI S Phase IC50/EC50” value does the source give for `COc1cc(NCc2ccc3nc(N)nc(N)c3c2C)cc(OC)c1OC` [NCGC00161419-05] here?
Its value is over 10 µM.

same assay, conditions: assay number 16; 4N

How did the “Hela CellCycMod PI 4N IC50/EC50” value turn out when `CC(=O)Oc1ccc(C2(c3ccc(OC(C)=O)cc3)Oc3ccccc3NC2=O)cc1` [NCGC00182998-01] was run?
The value was over 10 µM.

For `COc1cc(NCc2ccc3nc(N)nc(N)c3c2C)cc(OC)c1OC` [NCGC00161419-05], which “Hela CellCycMod PI 4N IC50/EC50” value is on record?
Its value is over 10 µM.

same assay, conditions: assay number 17; MI

How did the “Hela CellCycMod PI MI IC50/EC50” value turn out when `CC(=O)Oc1ccc(C2(c3ccc(OC(C)=O)cc3)Oc3ccccc3NC2=O)cc1` [NCGC00182998-01] was run?
Its value is over 10 µM.

With `COc1cc(NCc2ccc3nc(N)nc(N)c3c2C)cc(OC)c1OC` [NCGC00161419-05] as the compound, how does the “Hela CellCycMod PI MI IC50/EC50” value read?
The value was over 10 µM.

same assay, conditions: assay number 18; cell number

`CC(=O)Oc1ccc(C2(c3ccc(OC(C)=O)cc3)Oc3ccccc3NC2=O)cc1` [NCGC00182998-01] was tested. Which “Hela CellCycMod PI Cell Number IC50/EC50” value did it give?
Its value is 5.7532 µM.

For `COc1cc(NCc2ccc3nc(N)nc(N)c3c2C)cc(OC)c1OC` [NCGC00161419-05], which “Hela CellCycMod PI Cell Number IC50/EC50” value is on record?
Its value is 3.8068 µM.

test system: DLD-1; assay: cells; type: cell-based; settings: assay number 23

For `CC(=O)Oc1ccc(C2(c3ccc(OC(C)=O)cc3)Oc3ccccc3NC2=O)cc1` [NCGC00182998-01], which “Basal_Viability ATP DLD-1 IC50/EC50” value is on record?
Its value is 19.7291 µM.

`COc1cc(NCc2ccc3nc(N)nc(N)c3c2C)cc(OC)c1OC` [NCGC00161419-05] was tested. Which “Basal_Viability ATP DLD-1 IC50/EC50” value did it give?
Its value is 0.1951 µM.

test system: SW480; assay: cells; type: cell-based; settings: assay number 24

For `CC(=O)Oc1ccc(C2(c3ccc(OC(C)=O)cc3)Oc3ccccc3NC2=O)cc1` [NCGC00182998-01], which “Basal_Viability ATP SW480 IC50/EC50” value is on record?
The value was 9.1881 µM.

With `COc1cc(NCc2ccc3nc(N)nc(N)c3c2C)cc(OC)c1OC` [NCGC00161419-05] as the compound, how does the “Basal_Viability ATP SW480 IC50/EC50” value read?
The value was 0.0591 µM.

test system: HCT116; assay: cells; type: cell-based; settings: assay number 25; basal

With `COc1cc(NCc2ccc3nc(N)nc(N)c3c2C)cc(OC)c1OC` [NCGC00161419-05] as the compound, how does the “Basal_Viability ATP HCT116 IC50/EC50” value read?
The value was 0.02309 µM.

test system: HCT116 cells treated with a GSK3β inhibitor; assay: cells; type: cell-based; settings: assay number 26; GSK3b inhibitor pretreated

For `CC(=O)Oc1ccc(C2(c3ccc(OC(C)=O)cc3)Oc3ccccc3NC2=O)cc1` [NCGC00182998-01], which “GSK3b inh pretreated_Viability ATP HCT116 IC50/EC50” value is on record?
Its value is 3.2604 µM.

For `COc1cc(NCc2ccc3nc(N)nc(N)c3c2C)cc(OC)c1OC` [NCGC00161419-05], which “GSK3b inh pretreated_Viability ATP HCT116 IC50/EC50” value is on record?
The value was 0.00392 µM.

test system: Colo320; assay: cells; type: cell-based; settings: assay number 27

`CC(=O)Oc1ccc(C2(c3ccc(OC(C)=O)cc3)Oc3ccccc3NC2=O)cc1` [NCGC00182998-01] was tested. Which “Basal_Viability ATP Colo 320 IC50/EC50” value did it give?
The value was over 20 µM.

Which “Basal_Viability ATP Colo 320 IC50/EC50” value does the source give for `COc1cc(NCc2ccc3nc(N)nc(N)c3c2C)cc(OC)c1OC` [NCGC00161419-05] here?
The value was 0.3859 µM.

test system: HT-29; assay: cells; type: cell-based; settings: assay number 28

Which “Basal_Viability ATP HT-29 IC50/EC50” value does the source give for `CC(=O)Oc1ccc(C2(c3ccc(OC(C)=O)cc3)Oc3ccccc3NC2=O)cc1` [NCGC00182998-01] here?
The value was over 20 µM.

Which “Basal_Viability ATP HT-29 IC50/EC50” value does the source give for `COc1cc(NCc2ccc3nc(N)nc(N)c3c2C)cc(OC)c1OC` [NCGC00161419-05] here?
Its value is 0.02122 µM.

test system: RKO; assay: cells; type: cell-based; settings: assay number 29

How did the “Basal_Viability ATP RKO IC50/EC50” value turn out when `CC(=O)Oc1ccc(C2(c3ccc(OC(C)=O)cc3)Oc3ccccc3NC2=O)cc1` [NCGC00182998-01] was run?
Its value is 9.2255 µM.

How did the “Basal_Viability ATP RKO IC50/EC50” value turn out when `COc1cc(NCc2ccc3nc(N)nc(N)c3c2C)cc(OC)c1OC` [NCGC00161419-05] was run?
Its value is 0.00272 µM.

test system: SNU-C1; assay: cells; type: cell-based; settings: assay number 30

Which “Basal_Viability ATP SNU-C1 IC50/EC50” value does the source give for `CC(=O)Oc1ccc(C2(c3ccc(OC(C)=O)cc3)Oc3ccccc3NC2=O)cc1` [NCGC00182998-01] here?
The value was over 20 µM.

How did the “Basal_Viability ATP SNU-C1 IC50/EC50” value turn out when `COc1cc(NCc2ccc3nc(N)nc(N)c3c2C)cc(OC)c1OC` [NCGC00161419-05] was run?
The value was 5.1323 µM.

biological target: T1, hp70S6K1 (RPS6KB1) (Homo sapiens, UniProt P23443); assay: Cerep LANCE kinase assay hp70S6K1 (S1 assay 31); type: biochemical; settings: assay number 31
T1 construct: purchased Cerep (LANCE kinase assay platform, contract assay)
T1 sequence (P23443 whole entry): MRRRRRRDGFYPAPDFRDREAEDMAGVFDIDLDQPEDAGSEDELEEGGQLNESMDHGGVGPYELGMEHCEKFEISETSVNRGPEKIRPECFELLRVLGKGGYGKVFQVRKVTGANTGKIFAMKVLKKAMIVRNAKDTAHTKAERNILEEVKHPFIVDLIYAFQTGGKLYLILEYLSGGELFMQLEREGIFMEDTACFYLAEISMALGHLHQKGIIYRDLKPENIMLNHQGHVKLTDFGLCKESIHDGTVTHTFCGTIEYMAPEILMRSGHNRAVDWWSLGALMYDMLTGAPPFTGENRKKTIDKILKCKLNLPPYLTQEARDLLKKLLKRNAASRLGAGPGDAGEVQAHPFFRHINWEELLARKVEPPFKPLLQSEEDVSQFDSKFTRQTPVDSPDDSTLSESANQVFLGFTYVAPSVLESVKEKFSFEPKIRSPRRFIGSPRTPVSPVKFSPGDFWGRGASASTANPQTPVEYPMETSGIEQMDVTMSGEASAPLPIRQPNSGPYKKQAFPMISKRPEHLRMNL

Which “hp70S6K1 LANCE IC50/EC50” value does the source give for `CC(=O)Oc1ccc(C2(c3ccc(OC(C)=O)cc3)Oc3ccccc3NC2=O)cc1` [NCGC00182998-01] here?
Its value is over 20 µM.

How did the “hp70S6K1 LANCE IC50/EC50” value turn out when `COc1cc(NCc2ccc3nc(N)nc(N)c3c2C)cc(OC)c1OC` [NCGC00161419-05] was run?
Its value is over 20 µM.

biological target: T2, hKDR (Homo sapiens, UniProt P35968); assay: Cerep LANCE kinase assay hKDR (S1 assay 32); type: biochemical; settings: assay number 32
T2 construct: purchased Cerep (LANCE kinase assay platform, contract assay)
T2 sequence (P35968 20-1356): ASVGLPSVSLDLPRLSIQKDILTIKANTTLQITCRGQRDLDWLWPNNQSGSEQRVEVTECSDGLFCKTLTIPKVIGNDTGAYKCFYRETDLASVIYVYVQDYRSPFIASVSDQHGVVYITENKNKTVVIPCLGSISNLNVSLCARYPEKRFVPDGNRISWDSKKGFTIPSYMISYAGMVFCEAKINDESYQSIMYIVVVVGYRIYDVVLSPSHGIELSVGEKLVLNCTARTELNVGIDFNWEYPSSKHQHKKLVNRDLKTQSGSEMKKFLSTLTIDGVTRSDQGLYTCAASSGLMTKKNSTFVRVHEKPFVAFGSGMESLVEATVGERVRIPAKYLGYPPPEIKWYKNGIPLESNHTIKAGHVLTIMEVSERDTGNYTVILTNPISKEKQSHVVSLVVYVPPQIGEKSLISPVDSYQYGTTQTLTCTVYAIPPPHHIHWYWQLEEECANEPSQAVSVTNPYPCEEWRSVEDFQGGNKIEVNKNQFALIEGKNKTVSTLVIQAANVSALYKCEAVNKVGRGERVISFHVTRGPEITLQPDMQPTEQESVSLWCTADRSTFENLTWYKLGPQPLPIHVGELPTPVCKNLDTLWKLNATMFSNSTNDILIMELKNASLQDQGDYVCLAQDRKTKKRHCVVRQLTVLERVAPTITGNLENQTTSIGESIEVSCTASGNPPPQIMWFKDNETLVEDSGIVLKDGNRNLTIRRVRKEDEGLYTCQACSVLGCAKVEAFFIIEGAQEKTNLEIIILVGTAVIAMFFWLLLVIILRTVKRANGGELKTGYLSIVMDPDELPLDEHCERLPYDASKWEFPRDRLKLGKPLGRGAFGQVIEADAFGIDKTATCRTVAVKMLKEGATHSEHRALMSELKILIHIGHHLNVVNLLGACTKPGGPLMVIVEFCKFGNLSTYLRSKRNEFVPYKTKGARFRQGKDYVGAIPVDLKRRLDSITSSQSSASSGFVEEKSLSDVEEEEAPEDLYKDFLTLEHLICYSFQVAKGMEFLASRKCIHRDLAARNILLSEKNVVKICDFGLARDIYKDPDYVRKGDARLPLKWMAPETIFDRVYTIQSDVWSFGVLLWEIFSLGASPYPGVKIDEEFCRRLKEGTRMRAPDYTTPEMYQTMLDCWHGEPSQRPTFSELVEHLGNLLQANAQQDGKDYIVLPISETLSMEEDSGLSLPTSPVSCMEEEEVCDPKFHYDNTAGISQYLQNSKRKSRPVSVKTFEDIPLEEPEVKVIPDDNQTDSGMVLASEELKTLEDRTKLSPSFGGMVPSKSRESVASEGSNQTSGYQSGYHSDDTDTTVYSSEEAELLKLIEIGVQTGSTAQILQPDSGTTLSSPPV

How did the “hKDR LANCE IC50/EC50” value turn out when `CC(=O)Oc1ccc(C2(c3ccc(OC(C)=O)cc3)Oc3ccccc3NC2=O)cc1` [NCGC00182998-01] was run?
The value was over 20 µM.

`COc1cc(NCc2ccc3nc(N)nc(N)c3c2C)cc(OC)c1OC` [NCGC00161419-05] was tested. Which “hKDR LANCE IC50/EC50” value did it give?
The value was over 20 µM.

biological target: T3, hJAK2 (Homo sapiens, UniProt O60674); assay: Cerep LANCE kinase assay hJAK2 (S1 assay 33); type: biochemical; settings: assay number 33
T3 construct: purchased Cerep (LANCE kinase assay platform, contract assay)
T3 sequence (O60674 whole entry): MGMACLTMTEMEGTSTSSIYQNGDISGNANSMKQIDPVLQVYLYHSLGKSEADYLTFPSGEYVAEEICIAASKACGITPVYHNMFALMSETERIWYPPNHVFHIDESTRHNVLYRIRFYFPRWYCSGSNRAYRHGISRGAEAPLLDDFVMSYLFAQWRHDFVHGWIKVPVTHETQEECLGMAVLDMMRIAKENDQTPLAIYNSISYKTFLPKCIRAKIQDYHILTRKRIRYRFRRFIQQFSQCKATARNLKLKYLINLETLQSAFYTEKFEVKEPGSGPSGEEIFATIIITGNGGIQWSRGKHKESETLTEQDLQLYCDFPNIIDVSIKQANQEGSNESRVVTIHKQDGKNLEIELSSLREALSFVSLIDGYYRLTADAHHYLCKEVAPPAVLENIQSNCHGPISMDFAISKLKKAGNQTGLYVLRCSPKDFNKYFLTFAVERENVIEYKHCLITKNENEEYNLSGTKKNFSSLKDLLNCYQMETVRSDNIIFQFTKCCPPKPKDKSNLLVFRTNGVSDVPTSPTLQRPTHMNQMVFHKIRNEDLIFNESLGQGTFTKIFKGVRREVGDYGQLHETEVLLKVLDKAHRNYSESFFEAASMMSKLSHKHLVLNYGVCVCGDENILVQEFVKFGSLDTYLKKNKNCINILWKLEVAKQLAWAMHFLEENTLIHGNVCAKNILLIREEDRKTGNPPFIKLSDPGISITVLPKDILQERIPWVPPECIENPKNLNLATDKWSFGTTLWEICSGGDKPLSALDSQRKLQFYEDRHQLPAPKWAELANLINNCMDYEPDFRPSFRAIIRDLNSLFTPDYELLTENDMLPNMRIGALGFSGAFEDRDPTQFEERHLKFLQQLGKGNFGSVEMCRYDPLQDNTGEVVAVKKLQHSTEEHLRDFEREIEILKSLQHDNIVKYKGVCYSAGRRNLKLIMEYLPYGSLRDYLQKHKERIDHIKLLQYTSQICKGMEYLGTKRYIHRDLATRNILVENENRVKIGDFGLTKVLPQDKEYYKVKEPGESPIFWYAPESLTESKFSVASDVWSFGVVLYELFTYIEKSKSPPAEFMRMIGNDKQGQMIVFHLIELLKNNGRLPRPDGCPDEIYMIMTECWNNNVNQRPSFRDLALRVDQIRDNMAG

How did the “hJAK2 LANCE IC50/EC50” value turn out when `CC(=O)Oc1ccc(C2(c3ccc(OC(C)=O)cc3)Oc3ccccc3NC2=O)cc1` [NCGC00182998-01] was run?
Its value is over 20 µM.

Which “hJAK2 LANCE IC50/EC50” value does the source give for `COc1cc(NCc2ccc3nc(N)nc(N)c3c2C)cc(OC)c1OC` [NCGC00161419-05] here?
Its value is over 20 µM.

biological target: T4, hGSK3b (Homo sapiens, UniProt P49841); assay: Cerep LANCE kinase assay hGSK3b (S1 assay 34); type: biochemical; settings: assay number 34
T4 construct: purchased Cerep (LANCE kinase assay platform, contract assay)
T4 sequence (P49841 whole entry): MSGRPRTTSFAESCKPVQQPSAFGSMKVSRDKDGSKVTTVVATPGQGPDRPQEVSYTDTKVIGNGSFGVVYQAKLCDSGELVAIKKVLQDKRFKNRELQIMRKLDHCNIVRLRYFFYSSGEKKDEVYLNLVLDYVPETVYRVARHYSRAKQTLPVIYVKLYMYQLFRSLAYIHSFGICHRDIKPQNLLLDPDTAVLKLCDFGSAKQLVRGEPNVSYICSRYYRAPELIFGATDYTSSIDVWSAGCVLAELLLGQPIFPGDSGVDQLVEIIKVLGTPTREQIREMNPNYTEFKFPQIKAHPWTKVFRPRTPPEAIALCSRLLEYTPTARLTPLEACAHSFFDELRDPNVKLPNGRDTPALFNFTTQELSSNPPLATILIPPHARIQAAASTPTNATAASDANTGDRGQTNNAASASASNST

How did the “hGSK3b LANCE IC50/EC50” value turn out when `CC(=O)Oc1ccc(C2(c3ccc(OC(C)=O)cc3)Oc3ccccc3NC2=O)cc1` [NCGC00182998-01] was run?
The value was over 20 µM.

How did the “hGSK3b LANCE IC50/EC50” value turn out when `COc1cc(NCc2ccc3nc(N)nc(N)c3c2C)cc(OC)c1OC` [NCGC00161419-05] was run?
Its value is over 20 µM.

biological target: T5, hFLT3 (Homo sapiens, UniProt P36888); assay: Cerep LANCE kinase assay hFLT3 (S1 assay 35); type: biochemical; settings: assay number 35
T5 construct: purchased Cerep (LANCE kinase assay platform, contract assay)
T5 sequence (P36888 27-993): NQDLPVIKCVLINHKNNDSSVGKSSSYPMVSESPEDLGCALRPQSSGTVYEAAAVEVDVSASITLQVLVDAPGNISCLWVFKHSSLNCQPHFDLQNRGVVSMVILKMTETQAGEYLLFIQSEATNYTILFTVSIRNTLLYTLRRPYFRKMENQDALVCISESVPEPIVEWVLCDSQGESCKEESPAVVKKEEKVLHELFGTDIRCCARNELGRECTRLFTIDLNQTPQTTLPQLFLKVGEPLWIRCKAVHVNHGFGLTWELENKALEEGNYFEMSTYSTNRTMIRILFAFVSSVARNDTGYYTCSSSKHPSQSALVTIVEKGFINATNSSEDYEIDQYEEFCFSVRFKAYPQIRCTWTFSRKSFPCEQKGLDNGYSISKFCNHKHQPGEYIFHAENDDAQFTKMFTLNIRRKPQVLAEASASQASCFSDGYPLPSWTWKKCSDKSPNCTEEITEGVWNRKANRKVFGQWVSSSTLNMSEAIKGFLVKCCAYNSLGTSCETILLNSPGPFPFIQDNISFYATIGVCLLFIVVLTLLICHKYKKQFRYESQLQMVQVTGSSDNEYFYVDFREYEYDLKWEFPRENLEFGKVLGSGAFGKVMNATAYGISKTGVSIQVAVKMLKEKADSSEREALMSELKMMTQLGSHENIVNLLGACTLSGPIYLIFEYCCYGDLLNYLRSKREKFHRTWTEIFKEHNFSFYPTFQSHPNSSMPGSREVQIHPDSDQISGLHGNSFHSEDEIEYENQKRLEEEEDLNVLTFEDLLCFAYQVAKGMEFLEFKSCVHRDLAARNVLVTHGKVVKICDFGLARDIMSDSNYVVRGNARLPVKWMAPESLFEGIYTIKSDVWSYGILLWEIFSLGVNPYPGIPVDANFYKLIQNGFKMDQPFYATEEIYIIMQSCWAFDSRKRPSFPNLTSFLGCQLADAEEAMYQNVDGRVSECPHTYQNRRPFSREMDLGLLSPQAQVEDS

With `CC(=O)Oc1ccc(C2(c3ccc(OC(C)=O)cc3)Oc3ccccc3NC2=O)cc1` [NCGC00182998-01] as the compound, how does the “hFLT3 LANCE IC50/EC50” value read?
The value was over 20 µM.

`COc1cc(NCc2ccc3nc(N)nc(N)c3c2C)cc(OC)c1OC` [NCGC00161419-05] was tested. Which “hFLT3 LANCE IC50/EC50” value did it give?
The value was over 20 µM.

test system: ECFC/ADSC co-culture cell nuclei number; assay: not given; settings: not given

Which “VEGF_ADSC\ECFC Angio Hoechst NucArea IC50/EC50” value does the source give for `CC(=O)Oc1ccc(C2(c3ccc(OC(C)=O)cc3)Oc3ccccc3NC2=O)cc1` [NCGC00182998-01] here?
The value was over 10 µM.

`COc1cc(NCc2ccc3nc(N)nc(N)c3c2C)cc(OC)c1OC` [NCGC00161419-05] was tested. Which “VEGF_ADSC\ECFC Angio Hoechst NucArea IC50/EC50” value did it give?
The value was over 10 µM.
